Counter-ions that a name gives are not always drawn.
Key:
[1] = system: obese, stressed patients; experiment: CES-D test of current levels of emotional distress in patients; type: in vivo, human
Source text: (§1) A subgroup of obese individuals is identified, which individuals describe themselves as being unable to control their eating and who attempt to continue on a weight-reducing diet when experiencing emotional distress. […]
(§2) Objective measurements of emotional distress are made in some patients using the CES-D (Center for […] Depression Form) test, which measures current levels of emotional distress (Radloff, et al., The CES-D Scale: A Self Report Depression Scale for Research in the General Population Applied Psychological Measurement 1: 385-401, 1977); and the POMS (Profile of Mood States test, that assesses tension, depression, anger and confusion (McNair, et al., Profile of Mood States Manual;San Diego: Educational and Industrial Testing Service, 1971); both of these references are hereby incorporated by reference in their entirety. These tests are also given monthly during the treatment period. At the same time, patients also complete questionnaires that ask the patients to rate their appetite and hunger, and also to rate their tendency to eat in response to a variety of emotional and stressful triggers. The patients are also weighed monthly.

[2] = system: obese, stressed patients; experiment: questionnaire rating appetite and hunger; type: in vivo, human; set-up: Appetite and Cravings: scale not given here
Source text: as §1, §2

[3] = system: obese, stressed patients; experiment: questionnaire rating tendency to eat in response to emotional and stressful triggers; type: in vivo, human; set-up: Emotional Triggers: scale not given here
Source text: as §1, §2

[4] = system: Sprague-Dawley rats; experiment: stress related eating (clamp tightened on the tail) in rats; type: in vivo, rat; details: for Stress Eating, relative amount with 0 mg/kg as 100% / Stressed Rats, average amount of food consumed per rat / Stress Eating / Control Rats, average amount of food consumed per rat: 8 hours; for Stressed Rats, average amount of food consumed per rat: clamp tightened on the tail; for Stress Eating: stressed minus control rats; for Control Rats, average amount of food consumed per rat: untightened clamp
Description: The effect of the hydrochloride salt of 6-chloro-2-(1-piperazinyl)pyrazine (MK-212, which is obtained from Merck & Co., Inc. Whitehouse Station, N.J.), on stress related eating in animals is determined through the observation of the effect of experimental compounds on stress-related eating in adult Sprague-Dawley rats. These rats are widely used as a recognized animal model useful in predicting the effect of serotoninergic drugs in humans.
In these experiments, a group of 5 adult female and 5 adult male Sprague-Dawley rats weighing between 200 and 250 grams each are used as control animals. An untightened clamp is placed on the tail of these animals. The untightened clamp provides the unstressed condition. Each animal is placed in an individual cage and allowed free access to food. The amount of food consumed is determined at 2, 4 and 8 hours after the initiation of the trial. A similar group of rats has a clamp tightened on the tail. The amount of food consumed by this stressed group of rats is shown in the 0 mg/kg column. […] similar groups of stressed rats are injected with 1, 2, 5, or 10 mg/kg body weight of MK-212 one hour before initiation of the experiment.
The relative amounts of stress eating with the amount at 0 mg/kg MK-212 as 100% is also shown in the Stress Eating row. The preferred daily dose of MK-212 is about 1 mg/kg body weight to about 10 mg/kg body weight.

[5] = patient nine, 100 mg/day in divided doses, Month 1, baseline 9
[6] = patient nine, 100 mg/day in divided doses, Month 2, baseline 9
[7] = patient nine, 100 mg/day in divided doses, Month 3, baseline 9
[8] = patient nine, 100 mg/day in divided doses, Month 4, baseline 9
[9] = 1 mg/kg injected one hour before
[10] = 2 mg/kg injected one hour before
[11] = 5 mg/kg injected one hour before
[12] = 10 mg/kg injected one hour before

With `COc1ccc(C(CN(C)C)C2(O)CCCCC2)cc1` (centres unmarked) [venlafaxine hydrochloride] the “Mood Scores CES-D” value ([1]; patient ten, 75 rising to 150 mg/day, Month 1, baseline 8) was 4, the “Mood Scores CES-D” value ([1]; patient ten, 75 rising to 150 mg/day, Month 2, baseline 8) was 6 and the “Mood Scores CES-D” value ([1]; patient ten, 75 rising to 150 mg/day, Month 3, baseline 8) was 2. For the same compound, the “Mood Scores CES-D” value ([1]; patient ten, 75 rising to 150 mg/day, Month 4, baseline 8) was 2, the “Appetite and Cravings” value ([2]; patient ten, 75 rising to 150 mg/day, Month 1, baseline 10) was 6 and the “Appetite and Cravings” value ([2]; patient ten, 75 rising to 150 mg/day, Month 2, baseline 10) was 7. The “Appetite and Cravings” value ([2]; patient ten, 75 rising to 150 mg/day, Month 3, baseline 10) was 3, the “Appetite and Cravings” value ([2]; patient ten, 75 rising to 150 mg/day, Month 4, baseline 10) was 1 and the “Emotional Triggers” value ([3]; patient ten, 75 rising to 150 mg/day, Month 1, baseline 14) was 9. For the same compound, the “Emotional Triggers” value ([3]; patient ten, 75 rising to 150 mg/day, Month 2, baseline 14) was 4, the “Emotional Triggers” value ([3]; patient ten, 75 rising to 150 mg/day, Month 3, baseline 14) was 6 and the “Emotional Triggers” value ([3]; patient ten, 75 rising to 150 mg/day, Month 4, baseline 14) was 2.

With `COCCCC/C(=N\OCCN)c1ccc(C(F)(F)F)cc1` [fluvoxamine maleate] the “Mood Scores CES-D” value ([1]; patient three, 50 rising to 150 mg/day, Month 1, baseline 23) was 26, the “Mood Scores CES-D” value ([1]; patient three, 50 rising to 150 mg/day, Month 2, baseline 23) was 16 and the “Mood Scores CES-D” value ([1]; patient three, 50 rising to 150 mg/day, Month 3, baseline 23) was 15. The “Mood Scores CES-D” value ([1]; patient three, 50 rising to 150 mg/day, Month 4, baseline 23) was 17, the “Appetite and Cravings” value ([2]; patient three, 50 rising to 150 mg/day, Month 1, baseline 18) was 16 and the “Appetite and Cravings” value ([2]; patient three, 50 rising to 150 mg/day, Month 2, baseline 18) was 11. The “Appetite and Cravings” value ([2]; patient three, 50 rising to 150 mg/day, Month 3, baseline 18) was 12, the “Appetite and Cravings” value ([2]; patient three, 50 rising to 150 mg/day, Month 4, baseline 18) was 14 and the “Emotional Triggers” value ([3]; patient three, 50 rising to 150 mg/day, Month 1, baseline 34) was 27. For the same compound, the “Emotional Triggers” value ([3]; patient three, 50 rising to 150 mg/day, Month 2, baseline 34) was 30, the “Emotional Triggers” value ([3]; patient three, 50 rising to 150 mg/day, Month 3, baseline 34) was 20 and the “Emotional Triggers” value ([3]; patient three, 50 rising to 150 mg/day, Month 4, baseline 34) was 24.

With `O=c1n(CCCN2CCN(c3cccc(Cl)c3)CC2)nc2ccccn12` [trazodone hydrochloride] the “Mood Scores CES-D” value [1, 5] was 16, the “Mood Scores CES-D” value [1, 6] was 16 and the “Mood Scores CES-D” value [1, 7] was 10. The “Mood Scores CES-D” value [1, 8] was 1, the “Appetite and Cravings” value [2, 5] was 5 and the “Appetite and Cravings” value [2, 6] was 5. The “Appetite and Cravings” value [2, 7] was 3, the “Appetite and Cravings” value [2, 8] was 5 and the “Emotional Triggers” value ([3]; patient nine, 100 mg/day in divided doses, Month 1, baseline 12) was 12. For the same compound, the “Emotional Triggers” value ([3]; patient nine, 100 mg/day in divided doses, Month 2, baseline 12) was 9, the “Emotional Triggers” value ([3]; patient nine, 100 mg/day in divided doses, Month 3, baseline 12) was 5 and the “Emotional Triggers” value ([3]; patient nine, 100 mg/day in divided doses, Month 4, baseline 12) was 3.

`Clc1cncc(N2CCNCC2)n1` [MK-212, 6-chloro-2-(1-piperazinyl)pyrazine] was tested, and the “Stress Eating, relative amount with 0 mg/kg as 100%” value ([4]; 1 mg/kg) was “(83%)”, the “Stress Eating, relative amount with 0 mg/kg as 100%” value ([4]; 2 mg/kg) was “(76%)” and the “Stress Eating, relative amount with 0 mg/kg as 100%” value ([4]; 5 mg/kg) was “(25%)”. The “Stress Eating, relative amount with 0 mg/kg as 100%” value ([4]; 10 mg/kg) was “(0%)”, the “Stressed Rats, average amount of food consumed per rat” value (shortened to “Stressed Rats … per rat”) [4, 9] was 4.14 g and the “Stressed Rats … per rat” value [4, 10] was 3.78 g. For the same compound, the “Stressed Rats … per rat” value [4, 11] was 2.01 g, the “Stressed Rats … per rat” value [4, 12] was 0.97 g and the “Stress Eating” value ([4]; 1 mg/kg) was 2.82 g. For the same compound, the “Stress Eating” value ([4]; 2 mg/kg) was 2.58 g, the “Stress Eating” value ([4]; 5 mg/kg) was 0.85 g and the “Stress Eating” value ([4]; 10 mg/kg) was 0.0 g. The “stress-related eating” value ([4]; stressed rats, 1-10 mg/kg) was “reduces stress-related eating”, the “Control Rats, average amount of food consumed per rat” value (shortened to “Control Rats … per rat”) [4, 9] was 1.32 g and the “Control Rats … per rat” value [4, 10] was 1.20 g. The “Control Rats … per rat” value [4, 11] was 1.16 g and the “Control Rats … per rat” value [4, 12] was 1.03 g.
